According to patent publication US3962427A, “Antibiotic nebramycin factor VII” (Eli Lilly and Company, priority 1974, dated 1976):

Tests used:
[1] = system: Streptococcus sp. (group D) 9901; test: Agar dilution MIC, Antibiotic Spectrum of Nebramycin VII; type: cell-based
[2] = system: Streptococcus sp. (group D) 9960; test: as above; type: cell-based
[3] = system: Enterobater aerogenes EB2; test: as above; type: cell-based
[4] = system: Enterobacter aerogenes EB4; test: as above; type: cell-based
Enterobacter cloacae EB5 = test: as above; type: cell-based
Enterobacter cloacae EB8 = test: as above; type: cell-based
Escherichia coli EC2 = test: as above; type: cell-based
Escherichia coli EC8 = test: as above; type: cell-based
Proteus mirabilis PR3 = test: as above; type: cell-based
Proteus mirabilis PR11 = test: as above; type: cell-based
Proteus morganii PR1 = test: as above; type: cell-based
Proteus morganii PR15 = test: as above; type: cell-based
Proteus rettgeri PR2 = test: as above; type: cell-based
Proteus rettgeri PR7 = test: as above; type: cell-based
Proteus vulgaris PR27 = test: as above; type: cell-based
Proteus vulgaris PR28 = test: as above; type: cell-based
Providencia sp. 439 = test: as above; type: cell-based
[5] = system: Pseudomonas aeruginosa PI1; test: as above; type: cell-based
[6] = system: Pseudomonas aeruginosa PI12; test: as above; type: cell-based
[7] = system: Pseudomonas aeruginosa PI21; test: as above; type: cell-based
[8] = system: Pseudomonas aeruginosa PI23; test: as above; type: cell-based
[9] = system: Pseudomonas aeruginosa PI24; test: as above; type: cell-based
[10] = system: Pseudomonas aeruginosa PI27; test: as above; type: cell-based
[11] = system: Pseudomonas aeruginosa PI37; test: as above; type: cell-based
[12] = system: Pseudomonas aeruginosa PS9; test: as above; type: cell-based
[13] = system: Pseudomonas aeruginosa PS10; test: as above; type: cell-based
[14] = system: Pseudomonas aeruginosa PS14; test: as above; type: cell-based
[15] = system: Pseudomonas aeruginosa PS15; test: as above; type: cell-based
[16] = system: Pseudomonas aeruginosa PS34; test: as above; type: cell-based
Pseudomonas cepacia 3189 = test: as above; type: cell-based
Pseudomonas cepacia 5629 = test: as above; type: cell-based
[17] = system: Pseudomonas maltophilia 438; test: as above; type: cell-based
[18] = system: Pseudomonas pseudomallei 121; type: cell-based; conditions: agar dilution
[19] = system: Pseudomonas solanacearum X185; type: cell-based; conditions: agar dilution
Serratia marcescens SE3 = test: Agar dilution MIC, Antibiotic Spectrum of Nebramycin VII; type: cell-based
gram negative organisms = test: Antibacterial activity of nebramycin VII in words; type: cell-based
Solubility = type: physicochemical
[20] = system: Staphylococcus aureus 3055; test: Agar dilution MIC, Antibiotic Spectrum of Nebramycin VII; conditions: Staphylococcus aureus 3055, Penicillin G sensitive strain
[21] = system: Staphylococcus aureus 3074; test: as above; conditions: Staphylococcus aureus 3074, Penicillin G resistant strain
[22] = system: Staphylococcus aureus 3130; test: as above; conditions: Staphylococcus aureus 3130, Methicillin resistant strain
Pseudomonas species = conditions: cited from earlier work

For CN[C@@H]1[C@@H](O[C@H]2O[C@H](CO)[C@@H](N)[C@H](O)[C@H]2O)O[C@H]2[C@H](O)[C@@H](N)[C@@H](O[C@H]3[C@H](O)[C@@H](O)[C@H](N)C[C@@H]3N)O[C@@H]2[C@@H]1O [Nebramycin VII], the “Minimum Inhibitory Concentration” value [1] was over 256 µg/mL, the “Minimum Inhibitory Concentration” value [2] was 128 µg/mL and the “Minimum Inhibitory Concentration” value [3] was 8 µg/mL. For the same compound, the “Minimum Inhibitory Concentration” value [4] was 8 µg/mL, the “Minimum Inhibitory Concentration” value (Enterobacter cloacae EB5) was 8 µg/mL and the “Minimum Inhibitory Concentration” value (Enterobacter cloacae EB8) was 8 µg/mL. For the same compound, the “Minimum Inhibitory Concentration” value (Escherichia coli EC2) was 16 µg/mL, the “Minimum Inhibitory Concentration” value (Escherichia coli EC8) was 16 µg/mL and the “Minimum Inhibitory Concentration” value (Proteus mirabilis PR3) was 8 µg/mL. The “Minimum Inhibitory Concentration” value (Proteus mirabilis PR11) was 16 µg/mL, the “Minimum Inhibitory Concentration” value (Proteus morganii PR1) was 8 µg/mL and the “Minimum Inhibitory Concentration” value (Proteus morganii PR15) was 32 µg/mL. The “Minimum Inhibitory Concentration” value (Proteus rettgeri PR2) was 32 µg/mL, the “Minimum Inhibitory Concentration” value (Proteus rettgeri PR7) was 16 µg/mL and the “Minimum Inhibitory Concentration” value (Proteus vulgaris PR27) was 8 µg/mL. The “Minimum Inhibitory Concentration” value (Proteus vulgaris PR28) was 8 µg/mL, the “Minimum Inhibitory Concentration” value (Providencia sp. 439) was 32 µg/mL and the “Minimum Inhibitory Concentration” value [5] was 64 µg/mL. The “Minimum Inhibitory Concentration” value [6] was 16 µg/mL, the “Minimum Inhibitory Concentration” value [7] was over 256 µg/mL and the “Minimum Inhibitory Concentration” value [8] was over 256 µg/mL. The “Minimum Inhibitory Concentration” value [9] was 256 µg/mL, the “Minimum Inhibitory Concentration” value [10] was 64 µg/mL and the “Minimum Inhibitory Concentration” value [11] was over 256 µg/mL. For the same compound, the “Minimum Inhibitory Concentration” value [12] was 16 µg/mL, the “Minimum Inhibitory Concentration” value [13] was 8 µg/mL and the “Minimum Inhibitory Concentration” value [14] was 8 µg/mL. The “Minimum Inhibitory Concentration” value [15] was 8 µg/mL, the “Minimum Inhibitory Concentration” value [16] was 4 µg/mL and the “Minimum Inhibitory Concentration” value (Pseudomonas cepacia 3189) was 256 µg/mL. The “Minimum Inhibitory Concentration” value (Pseudomonas cepacia 5629) was 128 µg/mL, the “Minimum Inhibitory Concentration” value [17] was 16 µg/mL and the “Minimum Inhibitory Concentration” value [18] was 32 µg/mL. The “Minimum Inhibitory Concentration” value [19] was 4 µg/mL, the “Minimum Inhibitory Concentration” value (Serratia marcescens SE3) was 8 µg/mL and the “activity against the gram negative organisms” value (gram negative organisms) was “high degree of activity”. For the same compound, the “solubility in the higher alcohols and most common organic solvents” value (Solubility; higher alcohols and most common organic solvents) was “substantially insoluble”, the solubility in methanol (Solubility; methanol) was “slightly soluble” and the solubility in water (Solubility; water) was “water soluble”. For the same compound, the toxicity (Toxicity in words) was “relatively non-toxic”, the “Minimum Inhibitory Concentration” value [20] was 8 µg/mL and the “Minimum Inhibitory Concentration” value [21] was 4 µg/mL. The “Minimum Inhibitory Concentration” value [22] was 4 µg/mL.

In the case of CN[C@@H]1[C@@H](O[C@H]2O[C@H](CO)[C@@H](N)[C@H](O)[C@H]2O)OC2C[C@@H](N)[C@@H](O[C@H]3[C@H](O)[C@@H](O)[C@H](N)C[C@@H]3N)OC2[C@@H]1O (some centres unmarked) [Nebramycin II], the “antibiotic activity against Pseudomonas species” value (Pseudomonas species) is listed as “antibiotic activity”.
